Patent EP4772507A1, “AZAINDOLE COMPOUND AND MEDICAL DRUG” (Nippon Shinyaku Co., Ltd., priority 2023, dated 2025)

Key:
[1] = tested on: OCI-Ly3 cell lines; assay: Proliferation inhibition test, ABC-DLBCL cell line OCI-Ly3; assay type: cell-based; conditions: Homo sapiens; OCI-Ly3 (ABC-DLBCL, NF-κB pathway-dependent); 96 hours; Cell Counting Kit-8; read-out: Proliferation inhibitory activity against OCI-Ly3 IC50
Procedure, shortened: (§1)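 Cells exposed 96 h at 37 °C to compound at final 10–10,000 nM: OCI-Ly3 (ABC-DLBCL, NF-κB-dependent, IMDM/10% FBS) and SU-DHL-4 (GCB-DLBCL, NF-κB-independent negative control, RPMI-1640/10% FBS). Viability by CCK-8 absorbance at 450 nm after 4 h; IC50 from 2-parameter logistic regression.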

[2] = Central nervous system (CNS) penetration study in mice; assay type: in vivo; conditions: female, BALB/cCrSlc, mouse, ip, 30 mg/kg intraperitoneally, three hours later, cerebrum and plasma by LC-MS/MS, read-out: Brain-to-plasma concentration ratio (Kp value)
Method: To evaluate the central nervous system (CNS) penetration of a test substance, a central nervous system penetration study was conducted using mice.
Six-week-old female BALB/cCrSlc mice (Japan SLC) were used. The test substance suspended in 0.5% methylcellulose was intraperitoneally administered to mice at a dose of 30 mg/kg. Three hours later, blood was collected from the abdominal vena cava under isoflurane anesthesia, and plasma was obtained by centrifugation. After exsanguination from the abdominal vena cava, the cerebrum was collected.
The drug concentrations of the collected plasma and cerebrum were measured by LC-MS/MS. To determine the brain penetration of the drug, the brain-to-plasma concentration ratio (Kp value) was calculated.

[3] = tested on: HEK293/API2-MALT1/NF-κB reporter cells; assay: Inhibition of reporter activity in HEK293/API2-MALT1/NF-κB reporter cells; assay type: cell-based; conditions: Homo sapiens, 24 hours with test substance, One-glo luminescence
Procedure, shortened: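 HEK293 cells with constitutive NF-κB activation by API2-MALT1 fusion, carrying an NF-κB reporter; 293T/CMV reporter cells served as negative control. Cells seeded 24 h, then exposed to compound at final 10,000, 1,000, 100 and 10 nM for 24 h at 37 °C; luminescence read with One-glo, IC50 by non-linear regression.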

[4] = tested on: SU-DHL-4 cell lines; assay: Proliferation inhibition test, GCB-DLBCL cell line SU-DHL-4 (negative control line); assay type: cell-based; conditions: Homo sapiens; SU-DHL-4 (GCB-DLBCL, NF-κB pathway-independent, negative control); 96 hours; Cell Counting Kit-8; read-out: Proliferation inhibitory activity against SU-DHL-4 IC50
Procedure, shortened: as §1

[5] = molecular target: T1, C-terminal catalytic domain of MALT1 (amino acid residues 329-824) (Homo sapiens, UniProt Q9UDY8); assay: MALT1 protease inhibitory activity (enzyme activity inhibition assay, fluorogenic substrate); assay type: biochemical; conditions: substrate Ac-Leu-Arg-Ser-Arg-AMC 50 µM; 30°C for 2 hours; fluorescence
T1 construct: C-terminal catalytic domain of MALT1 (amino acid residues 329-824)
T1 sequence (Q9UDY8 329-824): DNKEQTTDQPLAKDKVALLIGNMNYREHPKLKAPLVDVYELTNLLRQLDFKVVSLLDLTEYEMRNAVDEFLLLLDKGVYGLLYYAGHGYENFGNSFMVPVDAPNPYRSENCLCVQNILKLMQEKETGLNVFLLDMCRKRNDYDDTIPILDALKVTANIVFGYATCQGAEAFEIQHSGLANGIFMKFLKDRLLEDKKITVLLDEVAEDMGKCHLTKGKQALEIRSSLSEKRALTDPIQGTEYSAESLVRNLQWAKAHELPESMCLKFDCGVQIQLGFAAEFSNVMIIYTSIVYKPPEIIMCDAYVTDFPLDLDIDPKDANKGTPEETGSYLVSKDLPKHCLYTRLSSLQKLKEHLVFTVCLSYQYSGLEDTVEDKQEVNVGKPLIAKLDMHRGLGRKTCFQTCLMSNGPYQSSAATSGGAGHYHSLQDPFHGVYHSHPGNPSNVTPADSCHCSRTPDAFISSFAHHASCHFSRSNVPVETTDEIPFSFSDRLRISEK
Procedure, shortened: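 Human MALT1 catalytic domain (residues 329-824) with Ac-Leu-Arg-Ser-Arg-AMC at 50 µM final, pH 7.5 Tris/HEPES buffer with 0.8 M Na citrate, DTT and CHAPS. Compounds at 0.1 to 10000 nM final, n = 2; reaction 2 h at 30°C. Fluorescence (ex 380/em 460 nm) fitted to a 2-parameter logistic model for IC50.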

| Structure (SMILES) | IC50 [1] | Kp at 3 h [2] | IC50 [3] | IC50 [4] | IC50 [5] |
| --- | --- | --- | --- | --- | --- |
| CCCn1cc(C(=O)c2cnn(-c3cncc4c(F)cccc34)c2C(F)(F)F)c2cc(Cl)c(-c3ncccn3)nc21 [Example 26, [5-chloro-1-propyl-6-(pyrimidin-2-yl)-1H-pyrrolo[2,3-b]pyridin-3-yl][1-(8-fluoroisoquinolin-4-yl)-5-(trifluoromethyl)-1H-pyrazol-4-yl]methanone] | 0.14 µM | 0.27 | 0.11 µM | 1.4 µM | 0.051 µM |
| Cn1cc(C(=O)c2cnn(-c3cccc4nnsc34)c2C(F)(F)F)c2cc(Cl)c(-n3nccn3)nc21 [Example 28, [1-(1,2,3-benzothiadiazol-7-yl)-5-(trifluoromethyl)-1H-pyrazol-4-yl][5-chloro-1-methyl-6-(2H-1,2,3-triazol-2-yl)-1H-pyrrolo[2,3-b]pyridin-3-yl]methanone] | 0.61 µM | 1.75 | 0.44 µM | > 10 µM | 0.024 µM |
| Cn1cc(C(=O)c2cnn(-c3cccc4nnsc34)c2C(F)(F)F)c2cc(Cl)c(-c3ncccn3)nc21 [Example 29, [1-(1,2,3-benzothiadiazol-7-yl)-5-(trifluoromethyl)-1H-pyrazol-4-yl][5-chloro-1-methyl-6-(pyrimidin-2-yl)-1H-pyrrolo[2,3-b]pyridin-3-yl]methanone] | 1 µM | 0.98 | 0.22 µM | > 10 µM | 0.017 µM |
